What was measured:
A673 = assay: Broad cell line profiling, A673; format: cell-based; details: A673, Human Ewings Sarcoma; read-out: PA IC50
Excerpt: • A panel of human and mouse cancer cell types used to assess the breadth of PA activity, including multiple therapy resistant metastatic mesenchymal tumor cell lines and primary glioblastoma patient-derived metastatic stem/tumor initiating cell populations.

Jurkat cells = assay: Polysome profiling; format: cell-based, human; details: 6 hours at 50 nM
Experimental: FIG. 7. Portimine A targets NMD3 and prevents polysome formation. […] (A) Immunoblot showing reduced NMD3 levels in shNMD3 Jurkat and HeLa cells. […] Jurkat cells were treated with 12.5 nM of PA for 12 or 24 hours. Jurkat and HeLa cells were treated with 5 nM or 150 nM of PA for 24 hours. Data represents mean±SD of biologically replicated experiments (n=3). […] Cell lysates were fractionated by sucrose gradient (5-50%) and each fraction were analyzed by western blot. eIF6 levels increase in 60S subunit fraction and decrease in ribosome-free fractions after PA treatment. RPS6, a 40S and polysome subunits marker, is decreased in polysome fractions after PA treatment. Results are representative of three independent experiments. […] Relative protein levels in each fraction were normalized to the peak fraction of the indicated protein from the DMSO cells and plotted. Data represents mean±SD of biologically replicated experiments (n=3). Statistical analysis was performed using multiple unpaired Student t-test. * p≤0.05; ** p≤0.01; *** p≤0.005; **** p≤0.0001. Treatment condition: Jurkat (5 M per condition); Incubate cells (1 M/mL) with inhibitors for 6 hr, 12 hr and 24 hr, respectively.
• 1) Portimine A and its functional analogs show stereo-selective acute toxicity in cancer cells (FIG. 1). […] (B) Structure of portimine related analogs: phenyl-portimine A (Ph-PA, 36) and epi-portimine A (ePA, 38). […]

In the case of `C=CC1=C[C@@H]2[C@@H]3O[C@]4(CC[C@H](O4)C(C)C[C@@H](O)C3=O)CC(O)C3=NCC[C@@]32CC1` (some centres unmarked) [PA, portimine A], the IC50 (A673) is reported as 2.5 nM and the “polysome profiling, protein translation” value (Jurkat cells) is reported as “protein translation inhibition”.

— patent publication US20260242390A1, “TOTAL SYNTHESES OF PORTIMINE A AND ANALOGUES THEREOF AS SMALL MOLECULE MODULATORS OF NMD3” (priority 2023, published 2026)
